Measurements from US20260265238A1, “COMPOUNDS AND PHARMACEUTICAL COMPOSITIONS THAT DEGRADE SWI/SNF-RELATED MATRIX-ASSOCIATED ACTIN-DEPENDENT REGULATOR OF CHROMATIN SUBFAMILY A” (Plexium, Inc., priority 2023, published 2026).

Tests used:
[1] = molecular target: T1, SMARCA2-HiBiT HeLa cells (protein which is expressed from the SMARCA2 gene) (Homo sapiens, UniProt P51531); experiment: SMARCA2 degradation assay (HiBiT-fusion HeLa cell line, 24 h, luminescence); assay type: cell-based
T1 construct: protein which is expressed from the SMARCA2 and SMARCA4 genes; host or cells: HeLa (SMARCA2-HiBiT engineered line)
Summary of the method: (§1)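 SMARCA2- or SMARCA4-HiBiT HeLa cells seeded overnight at 37° C, then given compound as a 10-point dilution (typically 10 μM to 300 pM) for 24 h at 37° C. Protein level read by HiBiT lytic detection luminescence; DC50 from dose-response curves; degradation also scored at 1 μM.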

[2] = molecular target: T2, SMARCA4-HiBiT HeLa cells (protein which is expressed from the SMARCA4 gene) (Homo sapiens, UniProt P51532); experiment: SMARCA4 degradation assay (HiBiT-fusion HeLa cell line, 24 h, luminescence); assay type: cell-based
T2 construct: protein which is expressed from the SMARCA2 and SMARCA4 genes; host or cells: HeLa (SMARCA4-HiBiT engineered line)
Summary of the method: as §1

T1 sequence (P51531 whole entry, the tested form may be a part): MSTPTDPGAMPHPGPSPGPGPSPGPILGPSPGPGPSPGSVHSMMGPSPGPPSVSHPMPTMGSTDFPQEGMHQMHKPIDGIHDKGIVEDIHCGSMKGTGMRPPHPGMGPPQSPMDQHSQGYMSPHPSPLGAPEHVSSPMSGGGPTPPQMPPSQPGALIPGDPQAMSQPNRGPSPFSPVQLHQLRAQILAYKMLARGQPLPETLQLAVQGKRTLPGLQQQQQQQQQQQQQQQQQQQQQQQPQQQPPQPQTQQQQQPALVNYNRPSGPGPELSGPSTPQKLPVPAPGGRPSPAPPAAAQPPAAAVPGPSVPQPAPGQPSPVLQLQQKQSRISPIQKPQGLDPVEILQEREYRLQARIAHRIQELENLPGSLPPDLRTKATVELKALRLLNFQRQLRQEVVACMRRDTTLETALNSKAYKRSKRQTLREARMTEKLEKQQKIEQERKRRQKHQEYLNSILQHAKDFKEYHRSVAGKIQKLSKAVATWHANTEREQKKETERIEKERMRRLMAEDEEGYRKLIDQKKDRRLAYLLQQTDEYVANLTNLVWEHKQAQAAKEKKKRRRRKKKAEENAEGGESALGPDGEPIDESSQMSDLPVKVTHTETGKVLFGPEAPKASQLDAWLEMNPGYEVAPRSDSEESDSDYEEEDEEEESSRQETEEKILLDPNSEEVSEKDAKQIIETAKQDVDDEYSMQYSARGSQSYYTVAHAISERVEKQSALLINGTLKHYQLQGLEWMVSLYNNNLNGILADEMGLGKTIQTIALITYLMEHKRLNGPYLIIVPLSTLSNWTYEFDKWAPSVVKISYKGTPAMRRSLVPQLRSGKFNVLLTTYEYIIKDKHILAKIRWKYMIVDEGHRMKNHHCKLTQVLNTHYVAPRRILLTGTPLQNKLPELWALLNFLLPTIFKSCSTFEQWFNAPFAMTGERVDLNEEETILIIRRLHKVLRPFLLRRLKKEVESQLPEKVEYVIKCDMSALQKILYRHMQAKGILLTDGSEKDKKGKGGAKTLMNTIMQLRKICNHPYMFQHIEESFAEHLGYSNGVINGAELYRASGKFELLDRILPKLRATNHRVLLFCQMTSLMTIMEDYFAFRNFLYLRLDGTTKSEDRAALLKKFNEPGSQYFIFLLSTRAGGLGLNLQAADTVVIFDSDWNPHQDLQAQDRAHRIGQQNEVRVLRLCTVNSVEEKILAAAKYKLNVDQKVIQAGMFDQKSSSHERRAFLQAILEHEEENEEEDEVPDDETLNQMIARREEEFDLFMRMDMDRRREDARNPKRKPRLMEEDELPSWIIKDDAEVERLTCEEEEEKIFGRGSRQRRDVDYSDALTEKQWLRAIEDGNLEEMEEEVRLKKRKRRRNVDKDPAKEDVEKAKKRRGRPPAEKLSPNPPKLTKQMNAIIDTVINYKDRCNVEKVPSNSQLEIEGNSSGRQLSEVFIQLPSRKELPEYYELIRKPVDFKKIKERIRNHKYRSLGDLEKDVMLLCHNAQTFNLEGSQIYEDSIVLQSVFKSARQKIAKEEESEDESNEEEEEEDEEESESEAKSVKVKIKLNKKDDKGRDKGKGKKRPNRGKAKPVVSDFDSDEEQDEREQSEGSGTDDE
T2 sequence (P51532 whole entry, the tested form may be a part): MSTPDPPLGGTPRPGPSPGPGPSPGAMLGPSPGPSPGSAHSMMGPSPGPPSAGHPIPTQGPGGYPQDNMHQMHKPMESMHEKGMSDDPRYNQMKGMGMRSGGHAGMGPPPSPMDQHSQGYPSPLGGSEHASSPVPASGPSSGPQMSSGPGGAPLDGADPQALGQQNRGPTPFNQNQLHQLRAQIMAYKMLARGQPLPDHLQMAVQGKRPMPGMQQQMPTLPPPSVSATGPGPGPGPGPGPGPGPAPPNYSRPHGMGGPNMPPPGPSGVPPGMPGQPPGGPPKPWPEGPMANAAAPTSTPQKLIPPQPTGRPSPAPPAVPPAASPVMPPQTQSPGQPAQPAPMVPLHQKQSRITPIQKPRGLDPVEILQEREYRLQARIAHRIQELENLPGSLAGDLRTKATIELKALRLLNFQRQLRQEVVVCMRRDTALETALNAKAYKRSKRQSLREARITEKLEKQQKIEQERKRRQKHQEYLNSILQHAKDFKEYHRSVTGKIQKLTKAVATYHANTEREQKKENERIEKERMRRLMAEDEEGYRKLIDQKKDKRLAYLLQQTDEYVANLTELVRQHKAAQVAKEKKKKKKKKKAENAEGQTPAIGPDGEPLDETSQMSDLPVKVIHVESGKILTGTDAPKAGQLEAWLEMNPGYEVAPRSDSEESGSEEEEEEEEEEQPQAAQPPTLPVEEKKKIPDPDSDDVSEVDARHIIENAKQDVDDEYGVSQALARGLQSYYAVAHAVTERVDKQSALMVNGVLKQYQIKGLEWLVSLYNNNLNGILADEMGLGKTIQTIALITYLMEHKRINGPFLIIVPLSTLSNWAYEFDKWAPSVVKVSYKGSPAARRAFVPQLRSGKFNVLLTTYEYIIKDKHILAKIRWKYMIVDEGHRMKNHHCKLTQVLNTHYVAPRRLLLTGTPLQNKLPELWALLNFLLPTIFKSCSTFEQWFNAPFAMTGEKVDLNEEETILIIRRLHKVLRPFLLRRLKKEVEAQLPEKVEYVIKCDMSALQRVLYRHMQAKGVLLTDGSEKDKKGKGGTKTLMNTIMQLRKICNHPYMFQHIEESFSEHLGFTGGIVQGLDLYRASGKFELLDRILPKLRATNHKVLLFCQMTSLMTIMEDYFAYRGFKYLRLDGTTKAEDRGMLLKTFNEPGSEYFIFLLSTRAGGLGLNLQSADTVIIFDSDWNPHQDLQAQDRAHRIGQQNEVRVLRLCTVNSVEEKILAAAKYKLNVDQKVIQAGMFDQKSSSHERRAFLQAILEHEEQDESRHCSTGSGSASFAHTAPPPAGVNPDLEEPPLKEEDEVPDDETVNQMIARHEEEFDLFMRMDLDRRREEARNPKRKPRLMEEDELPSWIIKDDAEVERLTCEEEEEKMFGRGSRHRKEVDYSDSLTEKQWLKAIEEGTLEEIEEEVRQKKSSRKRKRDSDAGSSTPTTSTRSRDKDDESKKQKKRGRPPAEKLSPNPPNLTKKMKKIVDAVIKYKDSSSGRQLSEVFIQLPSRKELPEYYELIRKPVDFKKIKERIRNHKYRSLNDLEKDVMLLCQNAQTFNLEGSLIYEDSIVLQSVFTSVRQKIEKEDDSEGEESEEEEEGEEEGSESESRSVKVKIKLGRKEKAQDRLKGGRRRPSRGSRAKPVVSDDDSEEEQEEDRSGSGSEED

Compound	DC50 [1] [nM]	SMARCA2 % Degradation @ 1 μM [1]	DC50 [2] [nM]	inhibition at 1 µM [2] [%]
CC(C)(C)OC(=O)NCC#Cc1nccc(N2CCC(Oc3cc(-c4ccccc4O)nnc3N)CC2)n1 [Compound P-296, 4-(1-{2-[3-(tert-butoxycarbonylamino)-1-propynyl]-4-pyrimidinyl}-4-piperidyloxy)-6-(o-hydroxyphenyl)-3-pyridazinamine]	50 to 500	++ (++=30-70%)	50 to 500	30 to 70
C[C@@H]1CCN1CC#Cc1nccc(N2CCCN(c3cc(-c4ccccc4O)nnc3N)CC2)n1 [Compound P-299, 0-{5-[4-(2-{3-[(R)-2-methyl-1-azetidinyl]-1-propynyl}-4-pyrimidinyl)-1,4-diazepan-1-y1]-6-amino-3-pyridaziny1} phenol]	50 to 500	+++ (+++=>70%)	50 to 500	30 to 70
Nc1nnc(-c2ccccc2O)cc1N1CCCN(c2ccnc(C#CCNC3CC3)n2)CC1 [Compound P-301, 0-[6-amino-5-(4-{2-[3-(cyclopropylamino)-1-propynyl]-4-pyrimidinyl}-1,4-diazepan-1-yl)-3-pyridazinyl]phenol]	50 to 500	++ (++=30-70%)	500 to 5000	30 to 70
CC(C)(C)OC(=O)NCC#Cc1nccc(N2C3CCC2CN(c2cc(-c4ccccc4O)nnc2N)CC3)n1 (stereo not drawn) [Compound P-303, 4-(9-{2-[3-(tert-butoxycarbonylamino)-1-propynyl]-4-pyrimidinyl}-3,9-diazabicyclo[4.2.1]non-3-yl)-6-(o-hydroxyphenyl)-3-pyridazinamine]	< 50	++ (++=30-70%)	< 50	30 to 70
CC(C)(C)OC(=O)NCC#Cc1nccc(N2CCCN(c3cc(-c4ccccc4O)nnc3N)CCC2)n1 [Compound P-304, 4-(5-{2-[3-(tert-butoxycarbonylamino)-1-propynyl]-4-pyrimidinyl}-1,5-diazocan-1-yl)-6-(o-hydroxyphenyl)-3-pyridazinamine]	50 to 500	+++ (+++=>70%)	50 to 500	
CC(C)(C)OC(=O)NCC#Cc1nccc(NC2CN(c3cc(-c4ccccc4O)nnc3N)C2)n1 [Compound P-307, 4-(3-{2-[3-(tert-butoxycarbonylamino)-1-propynyl]-4-pyrimidinylamino}-1-azetidinyl)-6-(o-hydroxyphenyl)-3-pyridazinamine]	50 to 500	++ (++=30-70%)	50 to 500	30 to 70
COC1CN(CC#Cc2nccc(N3CCCN(c4cc(-c5ccccc5O)nnc4N)CC3)n2)C1 [Compound P-309, 0-[6-amino-5-(4-{2-[3-(3-methoxy-1-azetidinyl)-1-propynyl]-4-pyrimidinyl}-1,4-diazepan-1-yl)-3-pyridazinyl]phenol]	50 to 500	++ (++=30-70%)	50 to 500	30 to 70
CC1(C)CN(CC#Cc2nccc(N3CCCN(c4cc(-c5ccccc5O)nnc4N)CC3)n2)CCO1 [Compound P-311, 0-[6-amino-5-(4-{2-[3-(2,2-dimethyl-4-morpholinyl)-1-propynyl]-4-pyrimidinyl}-1,4-diazepan-1-yl)-3-pyridazinyl]phenol]	50 to 500	++ (++=30-70%)	500 to 5000	30 to 70
Nc1nnc(-c2ccccc2O)cc1N1CCCN(c2ccnc(C#CCN3CC(F)(F)C3)n2)CC1 [Compound P-312, 0-[6-amino-5-(4-{2-[3-(3,3-difluoro-1-azetidinyl)-1-propynyl]-4-pyrimidinyl}-1,4-diazepan-1-yl)-3-pyridazinyl]phenol]	50 to 500	+++ (+++=>70%)	50 to 500	30 to 70
CC(C)(C)OC(=O)N1CCC[C@H]1C#Cc1nccc(N2CCCN(c3cc(-c4ccccc4O)nnc3N)CC2)n1 [Compound P-314, tert-butyl (S)-2-[2-(4-{4-[3-amino-6-(o-hydroxyphenyl)-4-pyridazinyl]-1,4-diazepan-1-yl}-2-pyrimidinyl)ethynyl]-1-pyrrolidinecarboxylate]	50 to 500		50 to 500	30 to 70
Nc1nnc(-c2ccccc2O)cc1N1CCCN(c2ccnc(C#CCN3CC4CCC(C3)O4)n2)CC1 [Compound P-315, 0-{6-amino-5-[4-(2-{3-(8-oxa-3-azabicyclo[3.2.1]oct-3-yl)-1-propynyl}-4-pyrimidinyl)-1,4-diazepan-1-yl]-3-pyridazinyl} phenol]	50 to 500	++ (++=30-70%)	500 to 5000	30 to 70
C[C@H]1COCCN1CC#Cc1nccc(N2CCCN(c3cc(-c4ccccc4O)nnc3N)CC2)n1 [Compound P-316, 0-{5-[4-(2-{3-[(S)-3-methyl-4-morpholinyl]-1-propynyl}-4-pyrimidinyl)-1,4-diazepan-1-yl]-6-amino-3-pyridazinyl}phenol]	50 to 500	++ (++=30-70%)	500 to 5000	< 30
CC1(C)COCCN1CC#Cc1nccc(N2CCCN(c3cc(-c4ccccc4O)nnc3N)CC2)n1 [Compound P-317, 0-[6-amino-5-(4-{2-[3-(3,3-dimethyl-4-morpholinyl)-1-propynyl]-4-pyrimidinyl}-1,4-diazepan-1-yl)-3-pyridazinyl]phenol]	50 to 500	++ (++=30-70%)	500 to 5000	< 30

Other lines, results leading:

DC50 [1] [nM]	SMARCA2 % Degradation @ 1 μM [1]	DC50 [2] [nM]	inhibition at 1 µM [2] [%]	Compound
50 to 500	++ (++=30-70%)	50 to 500	< 30	CNCC#Cc1nccc(N2C[C@H]3C[C@@H]2CN3c2cc(-c3ccccc3O)nnc2N)n1 [Compound P-295, 0-{5-[(1R,4R)-5-{2-[3-(methylamino)-1-propynyl]-4-pyrimidinyl}-2,5-diazabicyclo[2.2.1]hept-2-y1]-6-amino-3-pyridazinyl} phenol]
50 to 500	++ (++=30-70%)	< 50	< 30	CNCC#Cc1nccc(N2CCN(c3cc(-c4ccccc4O)nnc3N)CC[C@H]2C)n1 [Compound P-297, 0-{5-[(R)-5-methyl-4-{2-[3-(methylamino)-1-propynyl]-4-pyrimidinyl}-1,4-diazepan-1-yl]-6-amino-3-pyridazinyl} phenol]
50 to 500	+++ (+++=>70%)	50 to 500	30 to 70	C[C@@H]1CCN(c2cc(-c3ccccc3O)nnc2N)CCN1c1ccnc(C#CCn2ccnc2)n1 [Compound P-298, 0-{5-[(R)-4-{2-[3-(1-imidazolyl)-1-propynyl]-4-pyrimidinyl}-5-mcthyl-1,4-diazepan-1-yl]-6-amino-3-pyridazinyl}phenol]
50 to 500	+++ (+++=>70%)	50 to 500	30 to 70	Nc1nnc(-c2ccccc2O)cc1N1CCCN(c2ccnc(C#CCNC3CCOCC3)n2)CC1 [Compound P-300, 0-[6-amino-5-(4-{2-[3-(tetrahydro-2H-pyran-4-ylamino)-1-propynyl]-4-pyrimidinyl}-1,4-diazepan-1-yl)-3-pyridazinyl]phenol]
50 to 500	++ (++=30-70%)	50 to 500	30 to 70	C[C@H]1COC[C@H](C)N1CC#Cc1nccc(N2CCCN(c3cc(-c4ccccc4O)nnc3N)CC2)n1 [Compound P-305, 0-{5-[4-(2-{3-[(3S,5S)-3,5-dimethyl-4-morpholinyl]-1-propynyl}-4-pyrimidinyl)-1,4-diazepan-1-yl]-6-amino-3-pyridazinyl}phenol]
500 to 5000	??	500 to 5000	< 30	Nc1nnc(-c2ccccc2O)cc1N1CCCN(c2ccnc(C#Cc3cccc4nccn34)n2)CC1 [Compound P-306, 0-[5-(4-{2-[2-(1,3a-diaza-4-indenyl)ethynyl]-4-pyrimidinyl}-1,4-diazepan-1-yl)-6-amino-3-pyridazinyl]phenol]
500 to 5000	++ (++=30-70%)	500 to 5000	30 to 70	Nc1nnc(-c2ccccc2O)cc1N1CCCN(c2ccnc(C#CCN3CCC3)n2)CC1 [Compound P-308, 0-[6-amino-5-(4-{2-[3-(1-azetidinyl)-1-propynyl]-4-pyrimidinyl}-1,4-diazepan-1-yl)-3-pyridazinyl]phenol]
50 to 500	++ (++=30-70%)	50 to 500	30 to 70	N#CC1CN(CC#Cc2nccc(N3CCCN(c4cc(-c5ccccc5O)nnc4N)CC3)n2)CCO1 (stereo not drawn) [Compound P-310, 4-[3-(4-{4-[3-amino-6-(o-hydroxyphenyl)-4-pyridazinyl]-1,4-diazepan-1-y1}-2-pyrimidinyl)-2-propynyl]-2-morpholinecarbonitrile]
50 to 500	++ (++=30-70%)	500 to 5000	< 30	C[C@@H]1CN(CC#Cc2nccc(N3CCCN(c4cc(-c5ccccc5O)nnc4N)CC3)n2)CCO1 [Compound P-313, 0-{5-[4-(2-{3-[(R)-2-methyl-4-morpholinyl]-1-propynyl}-4-pyrimidinyl)-1,4-diazepan-1-yl]-6-amino-3-pyridaziny1}phenol]
50 to 500	++ (++=30-70%)	50 to 500	30 to 70	C[C@@H]1COC[C@H](C)N1CC#Cc1nccc(N2CCCN(c3cc(-c4ccccc4O)nnc3N)CC2)n1 [Compound P-318, 0-{5-[4-(2-{3-[(3R,5S)-3,5-dimethyl-4-morpholinyl]-1-propynyl}-4-pyrimidinyl)-1,4-diazepan-1-yl]-6-amino-3-pyridazinyl}phenol]
